From patent US12083123B2, “Method for the detection of drug-induced organ or tissue injury in IMPDH inhibitor treated patients” (University of Cincinnati, priority 2020, dated 2024)

Experiments:
[1] = tested on: WT-PI5P4Kβ/Pip4K2b−/− cells; test: Lysosomal acidification in serum starved WT-PI5P4Kβ/Pip4K2b−/− cells; type: cell-based; conditions: MPA treatment for 2 h
[2] = cited from earlier work
[3] = tested on: hepatic Kupffer cells; test: Mouse model treated with MMF by oral gavage: light microscopy of tissues, Kupffer cells and IMPDH2 expression; type: in vivo; conditions: MMF 120 mg/kg daily for over two weeks by oral gavage
Protocol: To further study the potential changes caused by MMF treatment, an animal model (mouse) was used and treated with MMF 120 mg/kg daily for over two weeks by oral gavage. As a control, another group of mice was treated with the vehicle used for MMF. Among the issues investigated (e.g., liver, kidney, ovary, brain, white adipose and brown adipose tissues, pancreas, stomach, lung), a major change that is easily detected by light microscope (400× magnification) is pointed on hepatic Kupffer cells. […] In addition, IMPDH2 expression levels within the Kupffer cells were increased compared to MMF-untreated mouse liver.

[4] = tested on: mouse liver hepatocytes; test: Mouse study: liver histology and EM image analysis of MMF-treated vs untreated mice; type: in vivo
Protocol: The body weights of the mice were recoded every day. […] The rest of the mice were sacrificed on day 14 and a necropsy was performed on the surviving mice.
H&E and trichrome staining was performed on each liver sections from 3 MMF treated and 5 untreated mice at a CLIA-certified laboratory at CHLA.
Ultrastructural analysis was performed as described for human liver biopsies on the mouse liver tissue from the MMF treated and untreated mice. The EM images were captured digitally at the same magnification (18,000×). Thirty hepatocytes per mouse liver are selected randomly and the numbers of the mitochondria and lipid droplets were counted per hepatocytes using the digital images. In addition, the greatest dimensions of randomly selected 50 mitochondria per hepatocytes from each mouse were measured using an image analysis software, Cellsens® (Olympus, Tokyo, Japan).
The numbers of the mitochondria and the lipid droplets and the sizes of the mitochondria of the hepatocytes from MMF treated and untreated mice were compared by repeated measures mixed model analysis, with […] as a random effect and group as fixed, at a 0.005 significance level, using Prism8 software (Graphpad Software, San Diego, CA, USA).

[5] = tested on: Kupffer cells; test: Human liver specimens from MMF-treated patients: macrophages in livers (Kupffer cells); type: in vivo
[6] = tested on: transplanted liver; test: Transplant liver biopsies (histology, EM, LFTs) of liver transplant recipients treated with MMF; type: in vivo, human
Protocol: One biopsy from a patient (Case 4) was performed for surveillance purpose. Ultrastructural analysis included obtaining a small portion of the liver biopsies and post-fixing in osmium tetroxide and embedded in epoxy resin. Ultra-thin sections were stained with uranyl acetate/lead citrate. Detailed evaluation was made using Morgagni transmission electron microscope (EM, FEI, Hillsboro, OR). 2 H&E (hematoxylin and eosin) and 5 special (1 each for PAS, PASD, reticulin, iron and trichrome) stained slides were used per biopsy. ACR was diagnosed and scored using the Rejection Activity Index (RAI), which included: 1) portal inflammation (score 1-3), 2) bile duct damage (score 1-3), and 3) venous endothelial inflammation (score 1-3). Each score was added (RAI) and the degree of ACR was scored as follows: RAI=0-9; <3: borderline/indeterminate ACR, 3-4: mild ACR, 5-7: moderate ACR and >7: severe ACR. (Banff; 1997). Nonspecific hepatocellular injury is often referred to “reactive changes”. Histologic features of “reactive changes” include enlarged hepatocytes with hydropic changes (expanded, pale to clear cytoplasm) and coarse eosinophilic granules (e.g. mega-mitochondria), and nuclei with anisonucleosis and bi- and multi-nucleation, cholestasis, steatosis and necrosis. Necrosis can range from single cell necrosis (acidophil bodies) to rarely broad necrosis with collapsed lobules.

[7] = the 11 patients with elevated LFTs
[8] = EM image analysis, MMF-treated for 14 days vs untreated group
[9] = Case 1-3, liver transplant recipients treated with MMF

| SMILES | lysosomal acidification [1] | patients with elevated LFTs ([2]; of 79 renal transplant recipients treated with MMF) | abnormal LFTs after reduction or withdrawal of MMF ([2]; renal transplant recipients with elevated LFTs) | ALT, median and range [2, 7] | AST, median and range [2, 7] | changes in the other tissues by standard light microscopic analysis ([3]; kidney, ovary, brain, adipose tissues, pancreas, stomach, lung) | Kupffer cell size and numbers ([3]; light microscope 400×, vs vehicle) | IMPDH2 expression levels within the Kupffer cells ([3]; vs MMF-untreated mouse liver) | degree of mitochondrial pleomorphism (size differences) in the hepatocytes [4, 8] | numbers of lipids (lipid droplets) in the hepatocytes [4, 8] | numbers of mitochondria in the hepatocytes [4, 8] | death during treatment ([4]; MMF treated group, 14 day treatment) | liver histology (H&E) ([4]; MMF-treated for 14 days vs untreated mice) | number and size of macrophages in livers (Kupffer cells) [5] | electron microscopy (EM) finding in transplant liver biopsies [6, 9] | histology of transplant liver biopsies [6, 9] | LFTs after stopping or reducing MMF ([6]; Case 1 and 2) |
| --- | --- | --- | --- | --- | --- | --- | --- | --- | --- | --- | --- | --- | --- | --- | --- | --- | --- |
| COc1c(C)c2c(c(O)c1C/C=C(\C)CCC(=O)O)C(=O)OC2 [MPA, mycophenolic acid] | suppressed lysosomal acidification |  |  |  |  |  |  |  |  |  |  |  |  |  |  |  |  |
| COc1c(C)c2c(c(O)c1C/C=C(\C)CCC(=O)OCCN1CCOCC1)C(=O)OC2 [MMF, mycophenolate mofetil] |  | 13.9% | normalized | 222.0 (51-508) U/L | 83.0 (50-123) U/L | did not show any significant changes | enlarged (hyperplasia/activated) and increased in their numbers | increased | significantly increased | significantly increased | significantly increased | Two mice in the MMF treated group died | no recognizable differences | significant increase | mitochondrial pleomorphism and crystalloid inclusions | only mild nonspecific hepatocellular injury | improved |
